Laboratory results taken from ChEMBL document CHEMBL1201862, “PubChem BioAssay data set” (2004).
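Interpolation was linear, between the two tested concentrations surrounding the appropriate level; five concentrations were tested over 48 hours in 96-well plates. GI50: concentration for 50% inhibition of growth.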 Active and inactive are the calls of the source. Cut-off read from the data, not from the text of the source: active = GI50 up to about 1.1 µM and inactive = higher.

Key:
Test in all cases: inhibition of tumour cell growth, NCI panel, 48 h
786-0 = test system: 786-0
A498 = test system: A498
A549 = test system: A549
ACHN = test system: ACHN
CAKI-1 = test system: CAKI-1
CCRF-CEM = test system: CCRF-CEM
COLO 205 = test system: COLO 205
DLD-1 = test system: DLD-1
DMS-114 = test system: DMS-114
DMS-273 = test system: DMS-273
EKVX = test system: EKVX
HCC 2998 = test system: HCC 2998
HCT-116 = test system: HCT-116
HCT-15 = test system: HCT-15
HL-60 = test system: HL-60
HOP-62 = test system: HOP-62
HOP-92 = test system: HOP-92
HT-29 = test system: HT-29
IGROV-1 = test system: IGROV-1
K562 = test system: K562
KM-20L2 = test system: KM-20L2
KM12 = test system: KM12
LOX IMVI = test system: LOX IMVI
LXFL 529 = test system: LXFL 529
M14 = test system: M14
M19-MEL = test system: M19-MEL
MOLT-4 = test system: MOLT-4
Malme-3M = test system: Malme-3M
NCI-H226 = test system: NCI-H226
NCI-H23 = test system: NCI-H23
NCI-H460 = test system: NCI-H460
NCI-H522 = test system: NCI-H522
OVCAR-3 = test system: OVCAR-3
OVCAR-4 = test system: OVCAR-4
OVCAR-5 = test system: OVCAR-5
OVCAR-8 = test system: OVCAR-8
RXF 393 = test system: RXF 393
RXF 631 = test system: RXF 631
SF-268 = test system: SF-268
SF-295 = test system: SF-295
SF-539 = test system: SF-539
SK-MEL-2 = test system: SK-MEL-2
SK-MEL-5 = test system: SK-MEL-5
SK-OV-3 = test system: SK-OV-3
SN12C = test system: SN12C
SNB-19 = test system: SNB-19
SNB-75 = test system: SNB-75
SNB-78 = test system: SNB-78
SR = test system: SR
SW-620 = test system: SW-620
TK-10 = test system: TK-10
U-251 = test system: U-251
UACC-257 = test system: UACC-257
UACC-62 = test system: UACC-62
UO-31 = test system: UO-31
HOP-18 = test system: HOP-18
RPMI-8226 = test system: RPMI-8226
SK-MEL-28 = test system: SK-MEL-28

Measured: GI50

COC1C2C=CC(C2)[C@H]1[N+](=O)[O-] (stereo partly specified)
inactive: 786-0 > 100 µM | A498 > 100 µM | A549 > 100 µM | ACHN > 100 µM | CAKI-1 > 100 µM | CCRF-CEM 74.1 µM | COLO 205 > 100 µM | DLD-1 > 100 µM | DMS-114 > 100 µM | DMS-273 > 100 µM | EKVX > 100 µM | HCC 2998 > 100 µM | HCT-116 > 100 µM | HL-60 28.8 µM | HOP-62 > 100 µM | HOP-92 > 100 µM | HT-29 > 100 µM | IGROV-1 > 100 µM | K562 > 100 µM | KM-20L2 > 100 µM | KM12 > 100 µM | LOX IMVI > 100 µM | LXFL 529 > 100 µM | M14 > 100 µM | M19-MEL > 100 µM | MOLT-4 > 100 µM | Malme-3M > 100 µM | NCI-H226 > 100 µM | NCI-H23 > 100 µM | NCI-H460 > 100 µM | NCI-H522 > 100 µM | OVCAR-3 > 100 µM | OVCAR-4 > 100 µM | OVCAR-5 > 100 µM | OVCAR-8 56.8 µM | RXF 393 > 100 µM | RXF 631 > 100 µM | SF-268 > 100 µM | SF-295 > 100 µM | SF-539 > 100 µM | SK-MEL-2 > 100 µM | SK-MEL-5 > 100 µM | SK-OV-3 > 100 µM | SN12C > 100 µM | SNB-19 > 100 µM | SNB-75 > 100 µM | SNB-78 > 100 µM | SR > 100 µM | SW-620 95.7 µM | TK-10 > 100 µM | U-251 > 100 µM | UACC-257 > 100 µM | UACC-62 > 100 µM | UO-31 > 100 µM
> 100 µM: HCT-15

Cc1ccc(C(O)(c2ccc(C)cc2)c2ccccn2)cc1
inactive: 786-0 > 100 µM | A498 > 100 µM | A549 64.6 µM | ACHN > 100 µM | CAKI-1 > 100 µM | CCRF-CEM 51.5 µM | COLO 205 > 100 µM | DLD-1 > 100 µM | DMS-114 > 100 µM | DMS-273 > 100 µM | EKVX 86.7 µM | HCC 2998 > 100 µM | HCT-116 68.9 µM | HOP-18 > 100 µM | HOP-62 > 100 µM | HT-29 80.7 µM | IGROV-1 > 100 µM | K562 71.6 µM | KM-20L2 > 100 µM | KM12 > 10 µM | LOX IMVI > 100 µM | M14 > 100 µM | M19-MEL > 100 µM | Malme-3M > 100 µM | NCI-H226 > 100 µM | NCI-H23 80.2 µM | NCI-H460 > 100 µM | OVCAR-3 > 100 µM | OVCAR-4 > 100 µM | OVCAR-5 > 100 µM | OVCAR-8 > 100 µM | RPMI-8226 > 100 µM | RXF 631 > 100 µM | SF-268 > 100 µM | SF-295 > 100 µM | SF-539 > 100 µM | SK-MEL-28 > 100 µM | SK-MEL-2 > 100 µM | SK-MEL-5 > 100 µM | SK-OV-3 > 100 µM | SN12C > 100 µM | SNB-19 > 100 µM | SNB-75 30.9 µM | SNB-78 > 100 µM | SW-620 > 100 µM | TK-10 62.1 µM | U-251 > 100 µM | UACC-257 > 100 µM | UACC-62 > 100 µM | UO-31 38.3 µM
> 100 µM: HCT-15
